Reference: the NIST ThermoML archive (doi:10.1016/j.jct.2019.07.011)

Assay: xn = mol fraction of the nth substance listed
Settings: Gas, Frequency=0.002 MHz, Spherical resonator

[He] [helium] + C
Settings | speed of sound [m/s]
273.16 K, 491.07 kPa, x2 = 0.8999 | 449.8
273.16 K, 495.33 kPa, x2 = 0.95 | 438.87
273.16 K, 993.4 kPa, x2 = 0.8999 | 448.5
273.16 K, 1010.2 kPa, x2 = 0.95 | 437.11
273.16 K, 1705.3 kPa, x2 = 0.8999 | 446.82
273.16 K, 2010.6 kPa, x2 = 0.95 | 433.9
273.16 K, 2484.9 kPa, x2 = 0.8999 | 445.25
273.16 K, 2988.8 kPa, x2 = 0.95 | 431.21
273.16 K, 3490.4 kPa, x2 = 0.8999 | 443.67
273.16 K, 4423.3 kPa, x2 = 0.95 | 428.28
273.16 K, 4498.4 kPa, x2 = 0.8999 | 442.69
273.16 K, 5505.7 kPa, x2 = 0.8999 | 442.38
273.16 K, 5984.1 kPa, x2 = 0.95 | 426.79
273.16 K, 6475.9 kPa, x2 = 0.95 | 426.75
273.16 K, 6493 kPa, x2 = 0.8999 | 442.8
273.16 K, 6972.4 kPa, x2 = 0.95 | 426.96
273.16 K, 7508.1 kPa, x2 = 0.8999 | 444.07
273.16 K, 7524.3 kPa, x2 = 0.95 | 427.48
273.16 K, 8481.6 kPa, x2 = 0.8999 | 446.2
273.16 K, 8589.5 kPa, x2 = 0.95 | 429.44
273.16 K, 9521.1 kPa, x2 = 0.8999 | 449.34
273.16 K, 9523.8 kPa, x2 = 0.95 | 432.26
273.16 K, 10522 kPa, x2 = 0.8999 | 453.42
273.16 K, 10523 kPa, x2 = 0.95 | 436.5
273.16 K, 11506 kPa, x2 = 0.95 | 441.94
273.16 K, 11530 kPa, x2 = 0.8999 | 458.54
273.16 K, 12532 kPa, x2 = 0.95 | 449.01
273.16 K, 12638 kPa, x2 = 0.8999 | 465.33
273.16 K, 13317 kPa, x2 = 0.95 | 455.32
273.16 K, 13633 kPa, x2 = 0.8999 | 472.45
273.16 K, 14040 kPa, x2 = 0.95 | 461.81
273.16 K, 14537 kPa, x2 = 0.8999 | 479.7
273.16 K, 14722 kPa, x2 = 0.95 | 468.48
273.16 K, 15299 kPa, x2 = 0.95 | 474.53
273.16 K, 15351 kPa, x2 = 0.8999 | 486.78
273.16 K, 15853 kPa, x2 = 0.95 | 480.65
273.16 K, 16041 kPa, x2 = 0.8999 | 493.25
273.16 K, 16516 kPa, x2 = 0.95 | 488.34
273.16 K, 16537 kPa, x2 = 0.8999 | 498.12
273.16 K, 17032 kPa, x2 = 0.95 | 494.58
273.16 K, 17048 kPa, x2 = 0.8999 | 503.31
273.16 K, 17533 kPa, x2 = 0.95 | 500.83
273.16 K, 17548 kPa, x2 = 0.8999 | 508.55
273.16 K, 18009 kPa, x2 = 0.95 | 506.92
273.16 K, 18059 kPa, x2 = 0.8999 | 514.05
273.16 K, 18537 kPa, x2 = 0.8999 | 519.32
273.16 K, 18552 kPa, x2 = 0.95 | 514.01
273.16 K, 19088 kPa, x2 = 0.95 | 521.16
273.16 K, 19117 kPa, x2 = 0.8999 | 525.88
273.16 K, 19871 kPa, x2 = 0.95 | 531.76
300 K, 482.33 kPa, x2 = 0.8999 | 469.85
300 K, 483.64 kPa, x2 = 0.95 | 458.75
300 K, 985.69 kPa, x2 = 0.95 | 457.69
300 K, 1001 kPa, x2 = 0.8999 | 469.18
300 K, 1985.5 kPa, x2 = 0.8999 | 468.06
300 K, 1996 kPa, x2 = 0.95 | 455.8
300 K, 2984.6 kPa, x2 = 0.8999 | 467.34
300 K, 3212.7 kPa, x2 = 0.95 | 454.1
300 K, 4475.2 kPa, x2 = 0.95 | 453.09
300 K, 4487.3 kPa, x2 = 0.8999 | 467.1
300 K, 5490.1 kPa, x2 = 0.8999 | 467.58
300 K, 5513.3 kPa, x2 = 0.95 | 452.95
300 K, 6460.8 kPa, x2 = 0.95 | 453.38
300 K, 6494.8 kPa, x2 = 0.8999 | 468.59
300 K, 7011.9 kPa, x2 = 0.95 | 453.9
300 K, 7501.4 kPa, x2 = 0.8999 | 470.2
300 K, 7543 kPa, x2 = 0.95 | 454.6
300 K, 8430.8 kPa, x2 = 0.95 | 456.23
300 K, 9026.4 kPa, x2 = 0.8999 | 473.76
300 K, 9344.2 kPa, x2 = 0.95 | 458.51
300 K, 10504 kPa, x2 = 0.8999 | 478.72
300 K, 10534 kPa, x2 = 0.95 | 462.72
300 K, 11500 kPa, x2 = 0.95 | 466.77
300 K, 11505 kPa, x2 = 0.8999 | 482.86
300 K, 12492 kPa, x2 = 0.8999 | 487.56
300 K, 12507 kPa, x2 = 0.95 | 471.79
300 K, 13305 kPa, x2 = 0.95 | 476.35
300 K, 13505 kPa, x2 = 0.8999 | 493.08
300 K, 13998 kPa, x2 = 0.95 | 480.72
300 K, 14495 kPa, x2 = 0.8999 | 499.05
300 K, 14699 kPa, x2 = 0.95 | 485.51
300 K, 15302 kPa, x2 = 0.95 | 489.92
300 K, 15515 kPa, x2 = 0.8999 | 505.8
300 K, 15902 kPa, x2 = 0.95 | 494.56
300 K, 16490 kPa, x2 = 0.8999 | 512.81
300 K, 16491 kPa, x2 = 0.95 | 499.36
300 K, 16994 kPa, x2 = 0.8999 | 516.63
300 K, 17005 kPa, x2 = 0.95 | 503.74
300 K, 17511 kPa, x2 = 0.8999 | 520.69
300 K, 17525 kPa, x2 = 0.95 | 508.33
300 K, 18012 kPa, x2 = 0.8999 | 524.75
300 K, 18013 kPa, x2 = 0.95 | 512.78
300 K, 18515 kPa, x2 = 0.95 | 517.49
300 K, 18523 kPa, x2 = 0.8999 | 529
300 K, 19011 kPa, x2 = 0.95 | 522.29
300 K, 19043 kPa, x2 = 0.8999 | 533.45
300 K, 19447 kPa, x2 = 0.95 | 526.6
300 K, 19955 kPa, x2 = 0.8999 | 541.5
325 K, 473.9 kPa, x2 = 0.8999 | 487
325 K, 479.57 kPa, x2 = 0.95 | 476.04
325 K, 976.85 kPa, x2 = 0.8999 | 486.84
325 K, 979.32 kPa, x2 = 0.95 | 475.45
325 K, 1477.5 kPa, x2 = 0.8999 | 486.66
325 K, 1677.4 kPa, x2 = 0.95 | 474.76
325 K, 2455.5 kPa, x2 = 0.95 | 474.19
325 K, 2481.6 kPa, x2 = 0.8999 | 486.49
325 K, 3481.4 kPa, x2 = 0.95 | 473.83
325 K, 3486.4 kPa, x2 = 0.8999 | 486.7
325 K, 4485.5 kPa, x2 = 0.8999 | 487.28
325 K, 4486.1 kPa, x2 = 0.95 | 473.85
325 K, 5487.2 kPa, x2 = 0.8999 | 488.28
